Test results taken from ChEMBL document CHEMBL4196078, “Polypharmacology in HIV inhibition: can a drug with simultaneous action against two relevant targets be an alternative to combination therapy?” (Eur J Med Chem, 2018).
pEC50, pIC50: −log10 of the molar value. ≈ marks a conversion by molar mass, not a printed value.

Assays:
[1] = molecular target: T1, Human immunodeficiency virus type 1 reverse transcriptase (Human immunodeficiency virus 1, UniProt Q72547); test: Inhibition of HIV1 reverse transcriptase RNase H using RNA-DNA hybrid duplex after 30 mins by FRET-based microplate fluorescence assay
[2] = molecular target: T1, Human immunodeficiency virus type 1 reverse transcriptase; test: Inhibition of HIV1 reverse transcriptase polymerase p51/p66 after 10 to 20 mins in presence of [3H]-TTP by liquid scintillation counting method
[3] = tested on: Human immunodeficiency virus 1; test: Antiviral activity against HIV1 3B infected in human MT4 cells; format: functional, organism-based; details: Human immunodeficiency virus 1, 3B
[4] = tested on: Human immunodeficiency virus 1; test: Antiviral activity against HIV1; format: functional, organism-based
[5] = tested on: Human immunodeficiency virus 1; test: Antiviral activity against HIV1 Lai infected in human MOLT4 cells after 7 days by WST8 assay; format: functional, organism-based; details: Human immunodeficiency virus 1, M:B_Lai, MOLT-4, 168 h
Hepatitis B virus = test: Antiviral activity against HBV; format: functional, organism-based
Herpesviridae sp. [6] = test: Antiviral activity against HSV; format: functional, organism-based
Herpesviridae sp. [7] = test: Potency index, ratio of tenofovir EC50 to compound EC50 for antiviral activity against HSV; format: functional
[8] = molecular target: T1, Human immunodeficiency virus type 1 reverse transcriptase; test: Inhibition of HIV1 3B reverse transcriptase using polyC/oligo(dG12) as template/primer in presence of [3H]dGTP and calf thymus DNA after 30 mins
[9] = molecular target: Human immunodeficiency virus type 1 reverse transcriptase (Human immunodeficiency virus 1, UniProt Q72547, E138K); test: Inhibition of TSAO resistant HIV1 3B reverse transcriptase E138K mutant using polyC/oligo(dG12) as template/primer in presence of [3H]dGTP and calf thymus DNA after 30 mins
[10] = tested on: Human immunodeficiency virus 1; test: Antiviral activity against HIV1 infected in human CEM cells assessed as reduction in giant cell formation by microscopic method; format: functional, organism-based; details: Human immunodeficiency virus 1, CCRF-CEM
[11] = Half life of the compound in PBS by HPLC analysis; format: physicochemical
[12] = tested on: Human immunodeficiency virus 1; test: Antiviral activity against PFA-resistant HIV1 harboring RT W88G mutant infected in human P4/R5 cells after 48 hrs by beta-galactosidase reporter gene assay; format: functional, organism-based; details: Human immunodeficiency virus 1, P4/R5, 48 h
[13] = tested on: Human immunodeficiency virus 1; test: Antiviral activity against HIV1 3B infected in human CEM/0 after 4 days by microscopic method; format: functional, organism-based; details: Human immunodeficiency virus 1, 3B, CCRF-CEM, 96 h
[14] = Stability in culture medium containing 10% FBS at 100 uM after 72 hrs by HPLC analysis; format: ADME; details: cattle, read-out: Stability
[15] = tested on: Human immunodeficiency virus 2; test: Antiviral activity against HIV2; format: functional, organism-based
[16] = tested on: Moloney murine sarcoma virus; test: Antiviral activity against MSV; format: functional, organism-based
Human alphaherpesvirus 3 = test: Antiviral activity against VZV; format: functional, organism-based
[17] = tested on: Human immunodeficiency virus 1; test: Antiviral activity against HIV1 3B infected in human MT4 cells by MTT assay; format: functional, organism-based; details: Human immunodeficiency virus 1, 3B
[18] = tested on: Human immunodeficiency virus 1; test: Antiviral activity against HIV1 3B infected in human PBMC after 5 days by MTT assay; format: functional, organism-based; details: Human immunodeficiency virus 1, 3B, 120 h
[19] = tested on: Human immunodeficiency virus 1; test: Antiviral activity against HIV1 Lai infected in human CEM-SS cells after 5 days by MTT assay; format: functional, organism-based; details: Human immunodeficiency virus 1, M:B_Lai, 120 h
[20] = tested on: Human immunodeficiency virus 2; test: Antiviral activity against HIV2 D194 infected in human PBMC after 5 days by MTT assay; format: functional, organism-based, Human immunodeficiency virus type 2 (ISOLATE D194); details: Human immunodeficiency virus 2, 120 h
Gag-Pol polyprotein = Gag-Pol polyprotein (Human immunodeficiency virus type 1 group M subtype B (isolate HXB2)(HIV-1), UniProt P04585); test: Inhibition of HIV1 reverse transcriptase polymerase; parameters: species or system Human immunodeficiency virus 1
[21] = molecular target: T1, Human immunodeficiency virus type 1 reverse transcriptase; test: Inhibition of HIV1 reverse transcriptase RNase H

COc1ccc2ccccc2c1/C=N/NC(=O)c1ccc(O)c(O)c1
pIC50 [1]: 6.30
pIC50 [2]: < 4.60

CCc1c(Sc2cc(C)cc(C)c2)n(COCCO)c(=O)[nH]c1=O
pEC50 [3]: 8.15

CC(C)(C)NC(=O)[C@H]1N(C(=O)[C@@H](O)[C@H](Cc2ccccc2)NC(=O)CC(C)(C)C(=O)O)CSC1(C)C
pEC50 [4]: 7.28

Cc1cccc(C)c1OCC(=O)N[C@@H](Cc1ccccc1)[C@H](O)C(=O)N1CSC(C)(C)[C@H]1C(=O)NC(C)(C)C
pEC50 [5]: 7.04

Nc1cc(OCCOCP(=O)(O)O)nc(N)n1
EC50 [4]: 0.8 µg/mL
pEC50 (Hepatitis B virus): 6.52
EC50 (Herpesviridae sp. [6]): 6.3 µg/mL (≈ 23.8 µM)
Ratio EC50 (Herpesviridae sp. [7]): 20

CCOC(=O)P(=O)(O)OCCCn1c(=O)c(C)cn([C@@H]2O[C@H](CO[Si](C)(C)C(C)(C)C)[C@@]3(OS(=O)(=O)C=C3N)[C@H]2O[Si](C)(C)C(C)(C)C)c1=O
pIC50 [8]: 4.96 to 5.43
pIC50 [9]: 3.37 to 3.53
pEC50 [10]: 5.35 to 7.10
half-life [11]: 30 min

COC(=O)P(=O)([O-])OCCCn1c(=O)c(C)cn([C@@H]2O[C@H](CO[Si](C)(C)C(C)(C)C)[C@@]3(OS(=O)(=O)C=C3N)[C@H]2O[Si](C)(C)C(C)(C)C)c1=O.[Na+]
pIC50 [8]: 4.96 to 5.43
pIC50 [9]: 3.37 to 3.53
pEC50 [10]: 5.35 to 7.10
half-life [11]: 30 min

Cc1cn([C@@H]2O[C@H](CO[Si](C)(C)C(C)(C)C)[C@@]3(OS(=O)(=O)C=C3N)[C@H]2O[Si](C)(C)C(C)(C)C)c(=O)n(CCCOP(=O)(O)C(=O)O)c1=O
pIC50 [8]: 4.96 to 5.43
pIC50 [9]: 3.37 to 3.53
pEC50 [10]: 5.35 to 7.10
pEC50 [12]: 6.80
half-life [11]: 30 min

Cc1cn([C@@H]2O[C@H](CO[Si](C)(C)C(C)(C)C)[C@@]3(OS(=O)(=O)C=C3N)[C@H]2O[Si](C)(C)C(C)(C)C)c(=O)n(CCCOP(=O)(O)C(=O)OCc2ccccc2)c1=O
pIC50 [8]: 4.96 to 5.43
pIC50 [9]: 3.37 to 3.53
pEC50 [10]: 5.35 to 7.10
half-life [11]: 30 min

COC(=O)P(=O)(OC)OCCCn1c(=O)c(C)cn([C@@H]2O[C@H](CO[Si](C)(C)C(C)(C)C)[C@@]3(OS(=O)(=O)C=C3N)[C@H]2O[Si](C)(C)C(C)(C)C)c1=O (stereo partly specified)
pEC50 [10]: 5.35 to 7.10
half-life [11]: 30 min

Cc1cn([C@@H]2O[C@H](CO[Si](C)(C)C(C)(C)C)[C@@]3(OS(=O)(=O)C=C3N)[C@H]2O[Si](C)(C)C(C)(C)C)c(=O)n(CCCn2c(=O)c(C)cn([C@H]3C[C@H](N=[N+]=[N-])[C@@H](CO)O3)c2=O)c1=O
pEC50 [13]: 7.05

Cc1cn([C@@H]2O[C@H](CO[Si](C)(C)C(C)(C)C)[C@@]3(OS(=O)(=O)C=C3N)[C@H]2O[Si](C)(C)C(C)(C)C)c(=O)n(CCCO)c1=O
pEC50 [10]: 7.00

Cc1cn([C@H]2C=C[C@@H](COC(=O)OC[C@H]3O[C@@H](n4cc(C)c(=O)[nH]c4=O)C[C@@H]3N=[N+]=[N-])O2)c(=O)[nH]c1=O
pEC50 [4]: 8.22

NC(=O)c1ncn([C@@H]2O[C@H](COP(=O)(O)OC[C@@H]3CC[C@H](n4cnc5c(=O)[nH]cnc54)O3)[C@@H](O)[C@H]2O)n1
remaining at 72 h, 100 µM [14]: 44%

Nc1nc(N)nc(OCCOCP(=O)(O)O)n1
pEC50 [4]: 5.62
pEC50 (Hepatitis B virus): 5.51
pEC50 [15]: 5.43
pEC50 [16]: 6.46
pEC50 (Human alphaherpesvirus 3): 5.51

CCc1c(Sc2cc(C)cc(C)c2)n(CCCCC(=O)NCCCCCCCCCCCCNc2ccn([C@H]3CC[C@@H](CO)O3)c(=O)n2)c(=O)[nH]c1=O
pEC50 [17]: 6.35
pEC50 [18]: 6.35
pEC50 [19]: 6.35
pEC50 [20]: 6.35

Cc1cn([C@H]2C=C[C@@H](COC(=O)OC[C@@H]3C=C[C@H](n4cc(C)c(=O)[nH]c4=O)O3)O2)c(=O)[nH]c1=O
pEC50 [4]: 6.62

Cc1cn([C@H]2C[C@H](N=[N+]=[N-])[C@@H](COC(=O)NCCCCNC(=O)OC[C@H]3O[C@@H](n4cc(C)c(=O)[nH]c4=O)C[C@@H]3N=[N+]=[N-])O2)c(=O)[nH]c1=O
pEC50 [4]: 4.59

Cc1cn([C@H]2C=C[C@@H](COC(=O)NCCCCNC(=O)OC[C@H]3O[C@@H](n4cc(C)c(=O)[nH]c4=O)C[C@@H]3N=[N+]=[N-])O2)c(=O)[nH]c1=O
pEC50 [4]: 4.02

COc1ccc2ccccc2c1/C=N/NC(=O)c1ccc(-c2ccccc2)cc1
pIC50 [1]: 5.30
pIC50 [2]: 6.30

O=C(Oc1ccc2c(c1OC(=O)c1ccccc1)C(=O)c1ccccc1C2=O)c1ccccc1
pIC50 (Gag-Pol polyprotein): 4.92
pIC50 [21]: 4.89

Cc1cn([C@H]2C[C@H](N=[N+]=[N-])[C@@H](COP(=O)(O)OC[C@H]3O[C@@H](n4cnc(C(N)=O)n4)[C@H](O)[C@@H]3O)O2)c(=O)[nH]c1=O
remaining at 72 h, 100 µM [14]: 36%

Cc1cn([C@H]2C[C@H](N=[N+]=[N-])[C@@H](COC(=O)OC[C@H]3O[C@@H](n4cc(C)c(=O)[nH]c4=O)C[C@@H]3N=[N+]=[N-])O2)c(=O)[nH]c1=O
pEC50 [4]: 8.70

COc1ccc2ccccc2c1/C=N/NC(=O)c1ccc(Oc2ccccc2)cc1
pIC50 [1]: 5.15
pIC50 [2]: 6.40

Cc1cn([C@H]2C[C@H](N=[N+]=[N-])[C@@H](COP(=O)(OC[C@@H]3CC[C@H](n4cnc5c(=O)[nH]cnc54)O3)OC[C@@H]3CC[C@H](n4cnc5c(=O)[nH]cnc54)O3)O2)c(=O)[nH]c1=O
pEC50 [3]: 6.78

Cc1cccc(C)c1OCC(=O)N[C@@H](Cc1ccccc1)[C@H](OC(=O)CCCC(=O)NCC(=O)OC[C@H]1O[C@@H](n2cc(C)c(=O)[nH]c2=O)C[C@@H]1N=[N+]=[N-])C(=O)N1CSC(C)(C)[C@H]1C(=O)NC(C)(C)C
pEC50 [5]: 10.00

Cc1cn([C@H]2C[C@H](N=[N+]=[N-])[C@@H](COP(=O)(O)OC[C@@H]3CC[C@H](n4cnc5c(=O)[nH]cnc54)O3)O2)c(=O)[nH]c1=O
pEC50 [3]: 8.70
remaining at 72 h, 100 µM [14]: 57%

Cc1cn([C@H]2C=C[C@@H](COC(=O)OCc3ccc(NC(=O)/C(O)=C/C(=O)c4cc(OCc5ccccc5)cc(OCc5ccccc5)c4)cc3)O2)c(=O)[nH]c1=O (stereo in doubt)
pEC50 [4]: 6.37

Nc1ncnc2c1ncn2CCOCP(=O)(O)O [ADEFOVIR]
pEC50 [4]: 5.70
pIC50 (Hepatitis B virus): 6.15

O=C1c2ccccc2C(=O)c2c1ccc(O)c2O [ATHRAQUINONES A]
pIC50 (Gag-Pol polyprotein): 4.10
pIC50 [21]: < 4.00

O=c1[nH]cnc2c1ncn2[C@H]1CC[C@@H](CO)O1 [DIDANOSINE]
pEC50 [3]: 4.88

C[C@H](Cn1cnc2c(N)ncnc21)OCP(=O)(O)O [TENOFOVIR ANHYDROUS]
EC50 (Herpesviridae sp. [6]): 105 µg/mL (≈ 366 µM)

Cc1cn([C@H]2C[C@H](N=[N+]=[N-])[C@@H](CO)O2)c(=O)[nH]c1=O [ZIDOVUDINE]
pEC50 [3]: 8.70
pEC50 [4]: 6.90
pEC50 [5]: 8.21
